In patent publication US20090298857A1, “Treatment of Neurodegenerative Diseases Through Inhibition of HSP90” (SLOAN-KETTERING INSTITUTE FOR CANCER RESEARCH, priority 2006, published 2009):

Columns and labels:
[1] = tested on: p35 and Tau phosphorylation in cortical region; test: One dose PU-DZ8 in hTau mice; assay type: in vivo; settings: 75 mg/kg i.p.
Protocol: The majority of Tau pathology in hTau mice is located in the cortical brain region. These mice express six isoforms of non-mutant human Tau, but develop AD-like Tau-pathology. Heat-stable fractions (S1) prepared from cortical homogenates of these mice indicate an age-related accumulation of Tau phosphorylated at putative cdk5 sites. […] Aggregate-free Tau (S1) fractions were prepared from the cortical region of these mice and human Tau levels assessed by immunobloting with an antibody specific for 3-repeat domain Tau (RD3). By analogy to experiments on primary neuronal cultures and WT Tau transfected cells, the Hsp90 inhibitor had no effect on soluble WT Tau expression. […] The monoclonal antibody CP13 is commonly used to detect Tau pathology in both early and more advanced stages of Tau aggregate accumulation (41).

[2] = ref. (2); cited from earlier work
[3] = tested on: p35 and tau phosphorylation in whole brains; test: Five day PU-DZ8 treatment of nine-month old JNPL3 mice; assay type: in vivo
Source text: Transgenic mice: Transgenic mice, JNPL3 line (59) overexpressing mutant human tau (P301L, 4R0N) were used in this study. Mice were heterozygous and on a mixed hybrid genetic background composed of C57BL/DBA2/SW, as published in ref. 59. These mice develop NFTs in the basal telencephalon, diencephalon, brainstem, and spinal cord, with severe pathology accompanied by degeneration in the spinal cord leading to dystonia, paralysis, and death in mice >12 months in age. Nine month-old male JNPL3 mice (n=2) were treated intraperitoneally with PU-DZ8 or vehicle for 5 days. Mice were sacrificed 12 h after last treatment by cervical dislocation under anesthesia.
To further examine the effect of Hsp90 on tau phosphorylation, we used the JNPL3 line of mice expressing mutant (P301L) tau protein (59). Genetic analyses have linked mutations in the tau gene to FTDP-17 (60, 61). Over 20 distinct pathogenic mutations have been identified, with P301L as the most common mutation in tauophaties (33). […] The tau protein in JNPL3 is predominantly human and is phosphorylated at multiple sites: T181 (AT270). S202/T205 (AT8), T212 (AT100), T231 (AT180), S262, S396/S404, S409 and S422 (59, 62). […] The degree of p35 expression translated well into alleviation of phosphorylation. […] However, in mice where effects were more prominent and p35 expression declined to approximately 20% as compared to control, a significant effect on tau phosphorylation at S202/T205 and T212/S214 and a 50% reduction on T231 was observed. We could not detect a significant amount of tau phosphorylation at T181, site found to be hyperphosphorylated in PHF, tangles and neurofilaments (65). Again, whole brain expression of cdk5 was not affected (FIG. 3).

[4] = tested on: mutant tau (HT7), Hsp70, p35; test: One dose PU-DZ8 in 6 month JNPL3 mice, S1 fraction Western blot (FIG. 9); assay type: in vivo; settings: one dose 75 mg/kg IP, subcortical S1
Protocol: JNPL3 female mice 6 months of age were treated IP with the Hsp90 inhibitor PU-DZ8 (75 mg/kg) and sacrificed various times as indicated in FIG. 9. Brains were divided in subcortical and cortical regions and processed using the Greenberg and Davies extraction protocol (77). Sarkosyl soluble fractions (S1) extracted from the subcortical region were analyzed by WB for p35, cdk5, mutant tau (HT7), Hsp90 and Hsp70. Protein bands were normalized to actin and plotted as relative change from untreated mice.

[5] = tested on: human TauP301L in JNPL3 mouse brain; test: One dose PU-DZ8 in JNPL3 mice, soluble (S1) and insoluble (P3) Tau; assay type: in vivo; settings: 75 mg/kg i.p.
Protocol: To investigate whether the human TauP301L present in the JNPL3 line of mice is a sensitive target for Hsp90 inhibition, animals were treated with the brain-barrier permeable Hsp90 inhibitor PU-DZ8. This agent is a higher-potency water soluble derivative of PU24FC1 (EC50JNPL3 brain Hsp90=70 nM). One dose of PU-DZ8 (75 mg/kg) was administered intraperitoneally (i.p.) to female mice of 2.5-4 months in age (n=32) and animals were sacrificed in the interval of 0 to 36 h. Both aggregate-free Tau (S1) and insoluble Tau (P3) fractions were prepared from the subcortical and cortical regions of these mice. Human Tau levels were assessed by immunobloting with a human specific anti-Tau antibody (HT-7). […] We next examined in a 4- to 6-month old mouse group (n=15) whether the stability of mTau as present in tau aggregates (P3 fraction) was additionally regulated by Hsp90.
For experiments designed to test the kinetics of mTau and p35 modulation by Hsp90 inhibitors, animals were administered intraperitoneally (i.p.) 75 mg/kg PU-DZ8 in PBS (6% DMSO). Mice were sacrificed by CO2 euthanasia at the indicated times following PU-DZ8 administration. Hemibrains were separated into cortico-limbic (cortex, amygdale and hippocampus) and subcortical (basal ganglia, diencephalon, brain stem and cerebellum) regions, quickly frozen on dry ice and stored at −80° C. and processed. In summary, each brain piece was weighed and homogenized in three volumes of Tris-buffered saline (TBS) containing protease and phosphatase inhibitors (25 mM Tris-HCl, pH 7.4, 150 mM NaCl, 1 mM EDTA, 1 mM EGTA, 5 mM sodium pyrophosphate, 30 mM p-glycerophosphate, 30 mM sodium fluoride. 1 mM phenylmethylsulfonyl fluoride (PMSF)). The homogenates were centrifuged at 27,000 g for 15 min at 4° C. Supernatants were collected as S1 fractions, and the pellets (P1) were re-homogenized in three volumes of salt/sucrose buffer (0.8 M NaCl, 10% sucrose, 10 mM Tris/HCl, pH 7.4, 1 mM EGTA, 1 mM PMSF) and centrifuged as above. The resulting pellets were discarded and the supernatants were incubated with sarkosyl (Sigma, St Louis, Mo., USA; 1% final concentration) for 1 h at 37° C. The sarkosyl mixtures were then centrifuged at 150,000 g for 30 min at 4° C. The supernatants (S2 fraction) were collected, and the pellets (P3) were resuspended in 50 μL 2% SDS in TBS and stored at −80° C. for western blotting. Proteins were analyzed by Western blot.

CC(C)NCCCn1c(Cc2cc3c(cc2I)OCO3)nc2c(N)nc(F)nc21 [PU-DZ8]
p35 levels ([1]; 8 h post-administration, P=0.0019): significant time-dependent reduction | Tau phosphorylation on Ser202 (antibody CP13) ([1]; 8 h post-administration, P=0.0078): alleviation of Tau phosphorylation | soluble WT Tau expression ([1]; hTau mice, cortical S1): no effect | water solubility [2]: water soluble | levels of compound in brain ([3]; 5 days i.p.): Pharmacologically relevant levels | whole brain expression of cdk5 ([3]; 5 days i.p.): not affected | reduction in p35 levels ([3]; 5 days i.p., whole brain): 50% | effect on tau phosphorylation at S202/T205 (Ab AT-8) ([3]; at 50% reduction in p35 levels): approximately similar effect | reduction of phosphorylation on T212/S214 (Ab AT-100) ([3]; at 50% reduction in p35 levels): almost completely | effect on tau phosphorylated at T231 (Ab AT-180) ([3]; at a reduction by 50% in p35 expression): No significant effect | p35 expression as compared to control ([3]; mice where effects were more prominent): approximately 20% | reduction of tau phosphorylation on T231 ([3]; mice with p35 expression approximately 20% of control): 50% | chaperone levels (hsp70) [4]: hsp70 increase | mutant protein mtau (HT7) [4]: degradation | cdk5 expression [5]: No significant changes | expressions of Akt and Raf-1 [5]: not altered | insoluble and hyperphosphorylated Tau (P3 fraction) ([5]; 4- to 6-month old mice): significant reduction | soluble precursor pool mTau (S1), subcortical brain regions ([5]; 4 h (P=0.0031), maintained up to 36 h): significant decrease
